Test results: the NIST ThermoML archive (doi:10.1021/je800122x)
± gives the expanded uncertainty stated by the source.

Legend:
[1] = Liquid
[2] = refractive index (Na D-line) (dimensionless); conditions: 293.1 K; 101.33 kPa; Liquid; Standard Abbe refractometry

Compound	vapor or sublimation pressure ([1]; 303.15 K) [kPa]	vapor or sublimation pressure ([1]; 313.15 K) [kPa]	vapor or sublimation pressure ([1]; 323.1 K) [kPa]	vapor or sublimation pressure ([1]; 333.05 K) [kPa]	vapor or sublimation pressure ([1]; 343 K) [kPa]	vapor or sublimation pressure ([1]; 352.9 K) [kPa]	vapor or sublimation pressure ([1]; 358.15 K) [kPa]	vapor or sublimation pressure ([1]; 358.45 K) [kPa]	vapor or sublimation pressure ([1]; 361.15 K) [kPa]	vapor or sublimation pressure ([1]; 364.15 K) [kPa]	vapor or sublimation pressure ([1]; 367.15 K) [kPa]	refractive index [2]	vapor or sublimation pressure ([1]; 293.15 K) [kPa]	vapor or sublimation pressure ([1]; 323.15 K) [kPa]	vapor or sublimation pressure ([1]; 333.15 K) [kPa]	vapor or sublimation pressure ([1]; 343.15 K) [kPa]	vapor or sublimation pressure ([1]; 353.15 K) [kPa]	vapor or sublimation pressure ([1]; 363.15 K) [kPa]	vapor or sublimation pressure ([1]; 369.15 K) [kPa]
CC(C)(Cl)OC(C)(C)Cl [propane, 2,2'-oxybis[2-chloro-]	0.24 ± 0.18	0.564 ± 0.34	0.867 ± 0.49	1.28 ± 0.7	1.919 ± 0.69	2.822 ± 0.78	3.673 ± 0.87	3.348 ± 0.83	4.237 ± 0.92	4.806 ± 0.97	5.477 ± 1	1.4473 ± 0.0007							
CC(Cl)CCl (stereo not drawn) [1,2-dichloropropane]												1.4383 ± 0.0007							
CC(O)CCl (stereo not drawn) [1-chloro-2-propanol]	2.225 ± 1.1	3.981 ± 1.3										1.4377 ± 0.0007	1.199 ± 0.99	6.662 ± 1.7	10.88 ± 2.4	17.2 ± 3.3	26.48 ± 4.7	39.8 ± 6.7	50.1 ± 8.2
